Laboratory results taken from publication PMC11613329, “An Optimized Marinopyrrole A Derivative Targets 6-Phosphoglucosamine Synthetase to Inhibit Methicillin-Resistant Staphylococcus aureus” (ACS Central Science, 2024).

Experiments:
[1] = target: T1, 6-Phosphoglucosamine synthetase (GlmS) (Staphylococcus aureus, UniProt Q5HE49); assay: in vitro GlmS enzymatic assay, positive control; type: biochemical
T1 sequence (Q5HE49 2-601): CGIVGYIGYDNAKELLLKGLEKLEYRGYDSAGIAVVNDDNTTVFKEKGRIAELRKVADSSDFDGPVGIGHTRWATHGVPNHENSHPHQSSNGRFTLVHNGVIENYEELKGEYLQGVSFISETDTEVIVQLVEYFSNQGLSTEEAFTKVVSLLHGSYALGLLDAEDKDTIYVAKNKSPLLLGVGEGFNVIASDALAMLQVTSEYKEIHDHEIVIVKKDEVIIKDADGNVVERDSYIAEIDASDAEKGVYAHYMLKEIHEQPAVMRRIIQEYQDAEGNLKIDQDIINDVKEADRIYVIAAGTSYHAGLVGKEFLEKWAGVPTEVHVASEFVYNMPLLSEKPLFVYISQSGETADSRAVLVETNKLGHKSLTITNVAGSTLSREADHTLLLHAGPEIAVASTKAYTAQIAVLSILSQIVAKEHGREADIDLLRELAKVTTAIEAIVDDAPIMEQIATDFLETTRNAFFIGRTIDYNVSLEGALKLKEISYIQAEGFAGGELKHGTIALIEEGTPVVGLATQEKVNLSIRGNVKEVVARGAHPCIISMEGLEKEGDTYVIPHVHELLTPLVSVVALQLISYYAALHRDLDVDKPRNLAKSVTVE

[2] = target: T1, 6-Phosphoglucosamine synthetase (GlmS); assay: SPR with purified GlmS; also thermal stability shift and enzymatic inhibition (IC50 […]); type: binding

COC(=O)/C=C/C(=O)NC[C@H](N)C(=O)O [FMDP, N^3-(4-metoxyfumaroyl)-(S)-2,3-diaminopropanoic acid]
in vitro GlmS enzymatic assay, positive control [1]: The reported FMDP was used as a positive control.

O=C(c1ccc(C(F)(F)F)cc1O)c1[nH]c(Cl)c(Cl)c1-n1c(C(=O)c2ccc(C(F)(F)F)cc2O)cc(Cl)c1Cl [MA-D1]
Kd [2]: 390 nM
